From PubChem BioAssay (NCI)
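Five compound concentrations were applied to cells in 96-well plates for 48 hours; endpoints were derived by simple linear interpolation of the resulting dose-response curve. TGI denotes the concentration required for complete inhibition of growth.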

Columns and labels:
Test in all cases: DTP human tumour cell line panel, 48 h
SF-268 CNS = system: SF-268 CNS
U251 CNS = system: U251 CNS
UACC-257 melanoma = system: UACC-257 melanoma
NCI-H23 lung = system: NCI-H23 lung
HOP-92 NSCLC = system: HOP-92 NSCLC
HT29 colon = system: HT29 colon
HS 578T breast = system: HS 578T breast
IGROV1 ovarian = system: IGROV1 ovarian
OVCAR-3 ovarian = system: OVCAR-3 ovarian
COLO 205 colon = system: COLO 205 colon
A498 renal = system: A498 renal
ACHN renal = system: ACHN renal
HCC-2998 colon = system: HCC-2998 colon
RXF 393 renal = system: RXF 393 renal
DU-145 prostate = system: DU-145 prostate
NCI/ADR-RES ovarian = system: NCI/ADR-RES ovarian
OVCAR-5 ovarian = system: OVCAR-5 ovarian
MCF7 breast = system: MCF7 breast
CAKI-1 renal = system: CAKI-1 renal
LOX IMVI melanoma = system: LOX IMVI melanoma
MDA-MB-231 breast = system: MDA-MB-231 breast
OVCAR-8 ovarian = system: OVCAR-8 ovarian
K-562 leukemia = system: K-562 leukemia
TK-10 renal = system: TK-10 renal
MDA-N = system: MDA-N
NCI-H226 lung = system: NCI-H226 lung
SR leukemia = system: SR leukemia
BT-549 breast = system: BT-549 breast
HL-60(TB) leukemia = system: HL-60(TB) leukemia
HOP-62 NSCLC = system: HOP-62 NSCLC
786-0 renal = system: 786-0 renal
T-47D breast = system: T-47D breast
HCT-116 colon = system: HCT-116 colon
UO-31 renal = system: UO-31 renal
KM12 colon = system: KM12 colon
SNB-19 CNS = system: SNB-19 CNS
NCI-H460 lung = system: NCI-H460 lung
PC-3 prostate = system: PC-3 prostate
OVCAR-4 ovarian = system: OVCAR-4 ovarian
MDA-MB-435 = system: MDA-MB-435
SK-OV-3 ovarian = system: SK-OV-3 ovarian
EKVX NSCLC = system: EKVX NSCLC
MOLT-4 leukemia = system: MOLT-4 leukemia
SF-295 CNS = system: SF-295 CNS
NCI-H522 lung = system: NCI-H522 lung
SK-MEL-5 melanoma = system: SK-MEL-5 melanoma
MALME-3M melanoma = system: MALME-3M melanoma
SF-539 CNS = system: SF-539 CNS
RPMI-8226 leukemia = system: RPMI-8226 leukemia
A549 NSCLC = system: A549 NSCLC
M14 melanoma = system: M14 melanoma
SN12C renal = system: SN12C renal
SW-620 colon = system: SW-620 colon
SNB-75 CNS = system: SNB-75 CNS
SK-MEL-2 melanoma = system: SK-MEL-2 melanoma
UACC-62 melanoma = system: UACC-62 melanoma
HCT-15 colon = system: HCT-15 colon
CCRF-CEM leukemia = system: CCRF-CEM leukemia
SK-MEL-28 melanoma = system: SK-MEL-28 melanoma

CCCCc1ccc(Nc2nc3c(ncn3COCCBr)c(=O)[nH]2)cc1
TGI (SF-268 CNS): > 100 µM
TGI (U251 CNS): > 100 µM
TGI (UACC-257 melanoma): > 100 µM
TGI (NCI-H23 lung): > 100 µM
TGI (HOP-92 NSCLC): > 100 µM
TGI (HT29 colon): > 100 µM
TGI (HS 578T breast): > 100 µM
TGI (IGROV1 ovarian): > 100 µM
TGI (OVCAR-3 ovarian): > 100 µM
TGI (COLO 205 colon): > 100 µM
TGI (A498 renal): > 100 µM
TGI (ACHN renal): > 100 µM
TGI (HCC-2998 colon): > 100 µM
TGI (RXF 393 renal): > 100 µM
TGI (DU-145 prostate): > 100 µM
TGI (NCI/ADR-RES ovarian): > 100 µM
TGI (OVCAR-5 ovarian): > 100 µM
TGI (MCF7 breast): > 100 µM
TGI (CAKI-1 renal): > 100 µM
TGI (LOX IMVI melanoma): > 100 µM
TGI (MDA-MB-231 breast): > 100 µM
TGI (OVCAR-8 ovarian): > 100 µM
TGI (K-562 leukemia): > 100 µM
TGI (TK-10 renal): > 100 µM
TGI (MDA-N): > 100 µM
TGI (NCI-H226 lung): > 100 µM
TGI (SR leukemia): > 100 µM
TGI (BT-549 breast): > 100 µM
TGI (HL-60(TB) leukemia): > 100 µM
TGI (HOP-62 NSCLC): > 100 µM
TGI (786-0 renal): > 100 µM
TGI (T-47D breast): > 100 µM
TGI (HCT-116 colon): > 100 µM
TGI (UO-31 renal): > 100 µM
TGI (KM12 colon): > 100 µM
TGI (SNB-19 CNS): > 100 µM
TGI (NCI-H460 lung): > 100 µM
TGI (PC-3 prostate): > 100 µM
TGI (OVCAR-4 ovarian): > 100 µM
TGI (MDA-MB-435): > 100 µM
TGI (SK-OV-3 ovarian): > 100 µM
TGI (EKVX NSCLC): > 100 µM
TGI (MOLT-4 leukemia): > 100 µM
TGI (SF-295 CNS): > 100 µM
TGI (NCI-H522 lung): > 100 µM
TGI (SK-MEL-5 melanoma): > 100 µM
TGI (MALME-3M melanoma): > 100 µM
TGI (SF-539 CNS): > 100 µM
TGI (RPMI-8226 leukemia): > 100 µM
TGI (A549 NSCLC): > 100 µM
TGI (M14 melanoma): > 100 µM
TGI (SN12C renal): > 100 µM
TGI (SW-620 colon): > 100 µM
TGI (SNB-75 CNS): > 100 µM
TGI (SK-MEL-2 melanoma): > 100 µM
TGI (UACC-62 melanoma): > 100 µM
TGI (HCT-15 colon): > 100 µM
TGI (CCRF-CEM leukemia): > 100 µM

O=c1oc2c([N+](=O)[O-])cc([N+](=O)[O-])cc2c2ccccc12
TGI (SF-268 CNS): > 100 µM
TGI (U251 CNS): > 100 µM
TGI (UACC-257 melanoma): > 100 µM
TGI (NCI-H23 lung): > 100 µM
TGI (HOP-92 NSCLC): > 100 µM
TGI (HT29 colon): > 100 µM
TGI (HS 578T breast): > 100 µM
TGI (IGROV1 ovarian): > 100 µM
TGI (OVCAR-3 ovarian): > 100 µM
TGI (SK-MEL-28 melanoma): > 100 µM
TGI (COLO 205 colon): > 100 µM
TGI (A498 renal): > 100 µM
TGI (ACHN renal): > 100 µM
TGI (HCC-2998 colon): > 100 µM
TGI (RXF 393 renal): > 100 µM
TGI (DU-145 prostate): > 100 µM
TGI (NCI/ADR-RES ovarian): > 100 µM
TGI (OVCAR-5 ovarian): > 100 µM
TGI (MCF7 breast): > 100 µM
TGI (CAKI-1 renal): > 100 µM
TGI (LOX IMVI melanoma): > 100 µM
TGI (MDA-MB-231 breast): > 100 µM
TGI (OVCAR-8 ovarian): > 100 µM
TGI (K-562 leukemia): > 100 µM
TGI (TK-10 renal): > 100 µM
TGI (MDA-N): > 100 µM
TGI (NCI-H226 lung): > 100 µM
TGI (SR leukemia): > 100 µM
TGI (BT-549 breast): > 100 µM
TGI (HL-60(TB) leukemia): > 100 µM
TGI (HOP-62 NSCLC): > 100 µM
TGI (786-0 renal): > 100 µM
TGI (T-47D breast): > 100 µM
TGI (HCT-116 colon): > 100 µM
TGI (SNB-19 CNS): > 100 µM
TGI (NCI-H460 lung): > 100 µM
TGI (PC-3 prostate): > 100 µM
TGI (OVCAR-4 ovarian): > 100 µM
TGI (MDA-MB-435): > 100 µM
TGI (EKVX NSCLC): > 100 µM
TGI (MOLT-4 leukemia): > 100 µM
TGI (SF-295 CNS): > 100 µM
TGI (NCI-H522 lung): > 100 µM
TGI (SK-MEL-5 melanoma): > 100 µM
TGI (MALME-3M melanoma): > 100 µM
TGI (SF-539 CNS): > 100 µM
TGI (RPMI-8226 leukemia): > 100 µM
TGI (A549 NSCLC): > 100 µM
TGI (M14 melanoma): > 100 µM
TGI (SN12C renal): > 100 µM
TGI (SW-620 colon): > 100 µM
TGI (SNB-75 CNS): > 100 µM
TGI (SK-MEL-2 melanoma): > 100 µM
TGI (UACC-62 melanoma): > 100 µM
TGI (HCT-15 colon): > 100 µM
TGI (CCRF-CEM leukemia): > 100 µM

O=C1NC(N/N=C\C(O)C(O)C(O)C(O)CO)=N/C1=C\c1ccc(Cl)cc1 (configuration not stated)
TGI (SF-268 CNS): 10.5 µM
TGI (UACC-257 melanoma): 37.4 µM
TGI (NCI-H23 lung): 21.2 µM
TGI (HOP-92 NSCLC): 7.44 µM
TGI (HT29 colon): 36.3 µM
TGI (HS 578T breast): 6.68 µM
TGI (IGROV1 ovarian): 31.9 µM
TGI (OVCAR-3 ovarian): 6.88 µM
TGI (SK-MEL-28 melanoma): > 100 µM
TGI (COLO 205 colon): 23.7 µM
TGI (A498 renal): 39.9 µM
TGI (ACHN renal): > 59.1 µM
TGI (HCC-2998 colon): 36.3 µM
TGI (RXF 393 renal): 25.6 µM
TGI (DU-145 prostate): 91.5 µM
TGI (NCI/ADR-RES ovarian): > 100 µM
TGI (OVCAR-5 ovarian): > 66.6 µM
TGI (MCF7 breast): > 100 µM
TGI (CAKI-1 renal): > 100 µM
TGI (LOX IMVI melanoma): 12.8 µM
TGI (MDA-MB-231 breast): 15.2 µM
TGI (OVCAR-8 ovarian): 5.63 µM
TGI (K-562 leukemia): > 100 µM
TGI (TK-10 renal): 27.4 µM
TGI (MDA-N): 9.99 µM
TGI (NCI-H226 lung): 10.6 µM
TGI (SR leukemia): 19.3 µM
TGI (BT-549 breast): 31.4 µM
TGI (HL-60(TB) leukemia): > 72.1 µM
TGI (HOP-62 NSCLC): 7.5 µM
TGI (786-0 renal): 18.1 µM
TGI (T-47D breast): 14.1 µM
TGI (HCT-116 colon): > 40.4 µM
TGI (UO-31 renal): > 79.9 µM
TGI (KM12 colon): > 80.7 µM
TGI (SNB-19 CNS): 10.9 µM
TGI (NCI-H460 lung): 32.3 µM
TGI (PC-3 prostate): 18.5 µM
TGI (OVCAR-4 ovarian): 26 µM
TGI (MDA-MB-435): 34.7 µM
TGI (SK-OV-3 ovarian): 40.6 µM
TGI (EKVX NSCLC): 38.9 µM
TGI (MOLT-4 leukemia): 24.6 µM
TGI (SF-295 CNS): 31.5 µM
TGI (NCI-H522 lung): 7.46 µM
TGI (SK-MEL-5 melanoma): 31.4 µM
TGI (MALME-3M melanoma): 5.95 µM
TGI (SF-539 CNS): 1.01 µM
TGI (RPMI-8226 leukemia): > 100 µM
TGI (A549 NSCLC): > 73.3 µM
TGI (M14 melanoma): 18.1 µM
TGI (SN12C renal): 15.3 µM
TGI (SW-620 colon): > 100 µM
TGI (SNB-75 CNS): 6.04 µM
TGI (SK-MEL-2 melanoma): 23.1 µM
TGI (UACC-62 melanoma): 3.14 µM
TGI (HCT-15 colon): > 100 µM
TGI (CCRF-CEM leukemia): > 73.1 µM
